These results are taken from ChEMBL document CHEMBL6096705, “Identification of a Chemical Probe for BLT2 Activation by Scaffold Hopping” (J Med Chem, 2025).

Values after ≈ are worked out from the molar mass of the structure shown. Bounds are passed on as bounds.

Data set [1] addresses T1, Leukotriene B4 receptor 2 (Homo sapiens, UniProt Q9NPC1).
T1 sequence (Q9NPC1 whole entry): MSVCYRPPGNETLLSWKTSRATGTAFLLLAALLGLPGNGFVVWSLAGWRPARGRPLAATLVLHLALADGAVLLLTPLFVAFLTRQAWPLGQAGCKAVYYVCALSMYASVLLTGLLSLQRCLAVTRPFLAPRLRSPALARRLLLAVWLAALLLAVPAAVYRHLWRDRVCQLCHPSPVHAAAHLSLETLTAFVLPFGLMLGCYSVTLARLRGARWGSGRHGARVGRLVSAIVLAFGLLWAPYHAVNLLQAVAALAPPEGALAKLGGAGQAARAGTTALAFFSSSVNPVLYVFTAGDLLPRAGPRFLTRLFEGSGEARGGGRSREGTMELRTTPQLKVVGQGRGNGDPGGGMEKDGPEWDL
The data set is described as follows: Agonist activity at BLT2 (unknown origin). The format is functional.

For data set [2], the target named is T1, Leukotriene B4 receptor 2. Briefly: Agonist activity at human BLT2 expressed in CHO-K1 cells overexpressing GNAi2 assessed as inhibition of forskolin-induced cAMP accumulation preincubated for 40 mins followed by forskolin addition and measured after 20 mins by HTRF assay. The format is functional, cell-based.
For data set [3], the target named is T1, Leukotriene B4 receptor 2. Briefly: Displacement of FITC-labeled tracer from Lumi4 Tb-labeled BLT2 (unknown origin) expressed in CHO-K1 cells incubated for 1 hrs by Tag-lite displacement based HTRF assay. The format is cell-based. A general note: TR-FRET usually uses a lanthanide donor and a delayed reading to cut background.
A further data set deals with HepG2. Briefly: Cytotoxicity against human HepG2 cells assessed as effect on cell viability at 100 uM measured after 72 hrs by CellTiter-Glo assay. The format is toxicity, cell-based. The note with it: hepg2, 72 h.
A short description of data set [4]: Aqueous solubility of compound in PBS buffer at pH 7.4 by precipitation based plate reader analysis. The format is physicochemical.
Data set [5] addresses T2, Type-1 angiotensin II receptor (Homo sapiens, UniProt P30556).
T2 sequence (P30556 whole entry): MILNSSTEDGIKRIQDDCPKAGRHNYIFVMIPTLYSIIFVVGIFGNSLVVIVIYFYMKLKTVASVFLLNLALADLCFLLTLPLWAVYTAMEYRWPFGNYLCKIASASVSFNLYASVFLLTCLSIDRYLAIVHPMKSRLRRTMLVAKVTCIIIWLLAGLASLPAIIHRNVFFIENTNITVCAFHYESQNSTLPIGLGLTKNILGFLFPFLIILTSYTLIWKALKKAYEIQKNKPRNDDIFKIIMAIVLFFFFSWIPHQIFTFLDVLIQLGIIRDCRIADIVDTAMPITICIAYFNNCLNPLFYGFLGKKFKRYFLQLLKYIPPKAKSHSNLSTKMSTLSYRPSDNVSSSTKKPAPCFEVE
Description: Antagonist activity at human AT1 receptor expressed in CHO-K1 cells co-expressing GNA14 assessed as inhibition of Val5-Angiotensin-II induced IP-1 accumulation incubated for 90 mins by HTRF assay

A short description of data set [6]: Metabolic stability in Sprague-Dawley rat liver microsomes assessed as parent compound remaining measured upto 60 mins in presence of NADPH by HPLC analysis. The format is ADME, Microsome. The note with it: read-out: Stability. (Microsomes from liver hold many membrane-bound enzymes, among them those of drug oxidation.)
The test system of another data set is U2OS. Briefly: Cytotoxicity against human U2OS cells assessed as effect on cell viability at 10 uM measured after 24 hrs by CellTiter-Glo assay. The format is toxicity, cell-based. In general terms: ATP-based viability assays read luminescence as a measure of living cells.
Data set [7] in a line: AUC (0 to infinity) in male C57BL/6J mouse at 10 mg/kg, SC by LC-MS analysis. The note with it: in vivo. The format is ADME, organism-based.
The nature of data set [8]: Half-life in male C57BL/6J mouse at 10 mg/kg, po by LC-MS analysis. The note with it: in vivo. The format is ADME, organism-based.
A short description of data set [9]: Toxicity in male C57BL/6J mouse assessed as effect on normal behavior at 3 mg/kg, iv. The format is organism-based. The following applies: in vivo.
A short description of data set [10]: Cytotoxicity against human MRC9 cells assessed as effect on cell viability at 10 uM measured after 24 hrs by CellTiter-Glo assay. The format is toxicity, cell-based. The following applies: mrc9, 24 h.
Data set [11] is described as follows: Tmax in male C57BL/6J mouse at 10 mg/kg, po by LC-MS analysis. The format is ADME, organism-based. The following applies: in vivo.
For the next data set, the system named is HEK-293T. The data set is described as follows: Cytotoxicity against HEK293T cells assessed as effect on cell viability at 10 uM measured after 24 hrs by CellTiter-Glo assay. The following applies: human. The format is toxicity, cell-based.
Data set [12] in a line: AUC (0 to infinity) in male C57BL/6J mouse at 10 mg/kg, po by LC-MS analysis. The format is ADME, organism-based. The note with it: in vivo.
The nature of data set [13]: Toxicity in male C57BL/6J mouse assessed as effect on normal behavior at 10 mg/kg, SC. The format is organism-based. The note with it: in vivo.
The nature of data set [14]: Cmax in male C57BL/6J mouse at 3 mg/kg, iv by LC-MS analysis. The format is ADME, organism-based. The following applies: in vivo.
A short description of data set [15]: Half-life in male C57BL/6J mouse at 10 mg/kg, SC by LC-MS analysis. The note with it: in vivo. The format is ADME, organism-based.
Data set [16] can be described thus: Cmax in male C57BL/6J mouse at 10 mg/kg, po by LC-MS analysis. The note with it: in vivo. The format is ADME, organism-based.
A short description of data set [17]: Toxicity in male C57BL/6J mouse assessed as effect on normal behavior at 10 mg/kg, po. The format is organism-based. The following applies: in vivo.
Data set [18] in a line: Oral bioavailability in male C57BL/6J mouse at 10 mg/kg by LC-MS analysis. The format is ADME, organism-based. The following applies: in vivo.
A short description of data set [19]: AUC (0 to infinity) in male C57BL/6J mouse at 3 mg/kg, iv by LC-MS analysis. The format is ADME, organism-based. The note with it: in vivo.
Data set [20] is described as follows: Half-life in male C57BL/6J mouse at 3 mg/kg, iv by LC-MS analysis. The format is ADME, organism-based. The note with it: in vivo.
Data set [21] addresses T1, Leukotriene B4 receptor 2. The data set is described as follows: Agonist activity at human BLT2 expressed in CHO-K1 cells overexpressing GNA14 assessed as induction of IP-1 accumulation incubated for 90 mins by HTRF assay. The format is functional, cell-based.
Data set [22] in a line: Binding affinity to BLT1 (unknown origin). Details: species or system Homo sapiens.

For the compound `CCCCC[C@H](O)/C=C/C=C/C/C=C\CCCC(=O)O`, the pEC50 (usually the negative decadic logarithm of the EC50, by convention in mol/L) in data set [1] was determined as 7.72. For the same compound, the concentration for a half-maximal effect (EC50) (as a rule, the midpoint of the concentration-response curve) in data set [2] is 1.4 nM.
Turning to `CCCCC(=O)N(Cc1ccc(-c2ccccc2C(=O)O)cc1)c1ccccc1`, the IC50 (in general, the midpoint of a concentration-inhibition curve) in data set [3] was 63 nM; in data set [5] it was 53 µM. For the same compound, the Activity result in the data set with HepG2 is reported as “Non-toxic”. The solubility (kinetic) (usually solubility judged after dilution from a stock solution rather than from solid) in [4] was found to be 250 µM (≈ 96.9 µg/mL). In [6], the remaining at 1 h worked out at 66%.
As for `CCCCC(=O)N1CC2(C1)CN(c1ccccc1-c1nnn[nH]1)C2`, the Activity entry (in the data set on U2OS; in the data set with HepG2; in data set [9]; in data set [10]; in the data set with HEK-293T; in data set [13]) was “Non-toxic” throughout. Besides, the Activity entry in data set [17] is listed as “Non-toxic”. Moreover, the AUC(0-inf) – broadly, the area under the concentration-time curve extrapolated to infinity – in data set [7] was 4080 ng·h/mL; in data set [12], 1730 ng·h/mL; in data set [19], 1020 ng·h/mL. Also, the half-life (as a rule, how long it takes for the measured level to halve) in data set [8] turned out to be 154 min; in data set [15], 62 min; in data set [20] it was 19 min. The solubility (kinetic) in [4] was at least 1000 µM. For the same compound, the Tmax – broadly, the time at which the peak concentration occurs – in data set [11] is 15 min. Moreover, the Cmax (commonly the highest concentration seen after dosing) is 3290 ng/mL in data set [14] and 1990 ng/mL in data set [16]. In addition, the remaining at 1 h in data set [6] came to 97.5%. Further, the bioavailability (in general, the share of a dose that reaches the circulation, judged against a reference dose that is usually intravenous) in [18] stood at 51%.
With `CCCCC(=O)N1Cc2cc(-c3ccccc3-c3nnn[nH]3)ccc2C1C` (stereo unspecified), the EC50 in data set [21] is 1.39 µM.
On to `CCCCC1(C)C(=O)N(Cc2ccc(-c3ccccc3C(=O)O)cc2)c2ccccc21` (stereo unspecified), for which the IC50 in [5] is 58 µM.
Compound `CCc1nnc(N2Cc3ccc(-c4ccccc4-c4nnn[nH]4)cc3C2)o1` showed a kinetic solubility in [4] of 750 µM (≈ 270 µg/mL). For the same compound, the IC50 in data set [5] worked out at 15.8 µM. Besides, in data set [6], the remaining at 1 h stood at 101%.
The compound `CCCCC(=O)N1Cc2ccc(-c3ccccc3-c3nnn[nH]3)cc2C1` gave an IC50 in [5] of over 400 µM.
The compound `CCc1cnc(N2Cc3ccc(-c4ccccc4-c4nnn[nH]4)cc3C2)s1` had a solubility (kinetic) in [4] of 250 µM (≈ 93.6 µg/mL). Also, inhibition in [5] was half-maximal at 79 µM (IC50). Moreover, in data set [6], the remaining at 1 h was 89%.
The like results for `CCCCC(=O)N1CCC2(CC1)CCN(c1ccccc1-c1nnn[nH]1)C2` were, in that order, at least 1000 µM, 13.6 µM and 99.8%.
Turning to `CCCCC(=O)N1CCc2ccc(-c3ccccc3C(=O)O)cc2C1`, the EC50 in data set [21] was 18.4 µM.
Consider `CCCCC1=NC2(CCCC2)C(=O)N1Cc1ccc(-c2ccccc2-c2nnn[nH]2)cc1` [IRBESARTAN], for which the IC50 in [3] was at least 1500 nM.
As for `CCCCC/C=C\C[C@@H](O)/C=C/C=C/C=C\[C@@H](O)CCCC(=O)O` [LEUKOTRIENE_B4], the pKd (as a rule, the Kd on a negative log10 scale, so that one unit is a factor of ten) in [22] is on record as 8.5.
